According to paper PMC5224920, “Assessing the mechanism and therapeutic potential of modulators of the human Mediator complex-associated protein kinases” (eLife, 2016):

System: 12 single or co-culture in vitro tissue models of primary cells
Assay: Culture/co-culture cell model panel, extracellular biomarkers (DiscoveRx); on CCL2/MCP-1: reference of the scale not given here; on CD38: reference of the scale not given here; on CD40: reference of the scale not given here; on CD69: reference of the scale not given here; on CXCL8/IL-8: reference of the scale not given here; on CXCL9/MIG: reference of the scale not given here; on IL-1alpha: reference of the scale not given here; on M-CSF: reference of the scale not given here; on PBMC Cytotoxicity: reference of the scale not given here
Assay type: cell-based, human
[1] = /Mphg Huvec+macrophages, 1.00E4 nM
[2] = /Mphg Huvec+macrophages, 1.11E3 nM
[3] = /Mphg Huvec+macrophages, 1.23E2 nM
[4] = /Mphg Huvec+macrophages, 1.37E1 nM
[5] = /Mphg Huvec+macrophages, 3.33E3 nM
[6] = /Mphg Huvec+macrophages, 3.70E2 nM
[7] = /Mphg Huvec+macrophages, 4.12E1 nM
[8] = /Mphg Huvec+macrophages, 4.57E0 nM

In the case of `Cc1n[nH]c2ncc(C(=O)N3CCC[C@H]3c3ccc(Cl)cc3)cc12` [CMPD4], the “Collagen I” value (/HDFNo, 4.57E0 nM) is reported as -0.029, the “Collagen III” value (/HDFNo, 4.57E0 nM) is reported as 0.064 and the CCL2/MCP-1 [1] is reported as -0.014. For the same molecule, the CCL3/MIP-1alpha [1] was 0.020, the CD40 [1] was 0.064 and the CD62E/E-Selectin [1] was -0.080. The CD69 [1] was 0.239, the CD106/VCAM-1 [1] was 0.005 and the CXCL8/IL-8 [1] was 0.133. For the same molecule, the IL-1alpha [1] was -0.065, the M-CSF [1] was 0.054 and the SRB [1] was -0.016. The SRB-Mphg [1] was 0.00054, the sIL-10 [1] was -0.061 and the CCL2/MCP-1 [2] was -0.111. The CCL3/MIP-1alpha [2] was -0.011, the CD40 [2] was 0.027 and the CD62E/E-Selectin [2] was -0.087. For the same molecule, the CD69 [2] was 0.187, the CD106/VCAM-1 [2] was -0.0013 and the CXCL8/IL-8 [2] was 0.008. For the same molecule, the IL-1alpha [2] was -0.048, the M-CSF [2] was -0.024 and the SRB [2] was -0.010. It also gave an SRB-Mphg [2] of -0.020, a sIL-10 [2] of -0.122 and a CCL2/MCP-1 [3] of -0.109. For the same molecule, the CCL3/MIP-1alpha [3] was 0.015, the CD40 [3] was -0.002 and the CD62E/E-Selectin [3] was -0.108. The CD69 [3] was 0.181, the CD106/VCAM-1 [3] was 0.017 and the CXCL8/IL-8 [3] was 0.014. It also gave an IL-1alpha [3] of -0.049, a M-CSF [3] of -0.028 and an SRB [3] of -0.00948. It also gave an SRB-Mphg [3] of 0.00118, a sIL-10 [3] of -0.100 and a CCL2/MCP-1 [4] of -0.054. For the same molecule, the CCL3/MIP-1alpha [4] was 0.000182, the CD40 [4] was -0.054 and the CD62E/E-Selectin [4] was -0.144. For the same molecule, the CD69 [4] was 0.083, the CD106/VCAM-1 [4] was 0.0075 and the CXCL8/IL-8 [4] was 0.000538. The IL-1alpha [4] was -0.006, the M-CSF [4] was -0.041 and the SRB [4] was -0.007. It also gave an SRB-Mphg [4] of 0.004, a sIL-10 [4] of 0.023 and a CCL2/MCP-1 [5] of -0.091. The CCL3/MIP-1alpha [5] was -9.82e-5, the CD40 [5] was 0.039 and the CD62E/E-Selectin [5] was -0.094. It also gave a CD69 [5] of 0.200, a CD106/VCAM-1 [5] of 0.025 and a CXCL8/IL-8 [5] of 0.043. It also gave an IL-1alpha [5] of -0.044, a M-CSF [5] of -0.021 and an SRB [5] of -0.013. For the same molecule, the SRB-Mphg [5] was 0.00473, the sIL-10 [5] was -0.159 and the CCL2/MCP-1 [6] was -0.110. For the same molecule, the CCL3/MIP-1alpha [6] was -0.009, the CD40 [6] was -0.020 and the CD62E/E-Selectin [6] was -0.094. For the same molecule, the CD69 [6] was 0.185, the CD106/VCAM-1 [6] was 0.027 and the CXCL8/IL-8 [6] was 0.00143. It also gave an IL-1alpha [6] of -0.030, a M-CSF [6] of -0.017 and an SRB [6] of -0.005. For the same molecule, the SRB-Mphg [6] was -0.005, the sIL-10 [6] was -0.159 and the CCL2/MCP-1 [7] was -0.089. It also gave a CCL3/MIP-1alpha [7] of 0.015, a CD40 [7] of -0.055 and a CD62E/E-Selectin [7] of -0.120. The CD69 [7] was 0.131, the CD106/VCAM-1 [7] was -0.013 and the CXCL8/IL-8 [7] was 0.037. It also gave an IL-1alpha [7] of -0.015, a M-CSF [7] of -0.025 and an SRB [7] of -0.00546. For the same molecule, the SRB-Mphg [7] was 0.005, the sIL-10 [7] was -0.021 and the CCL2/MCP-1 [8] was -0.005. It also gave a CCL3/MIP-1alpha [8] of -0.00218, a CD40 [8] of -0.087 and a CD62E/E-Selectin [8] of -0.111. It also gave a CD69 [8] of 0.012, a CD106/VCAM-1 [8] of 0.00354 and a CXCL8/IL-8 [8] of -0.024. The IL-1alpha [8] was 0.018, the M-CSF [8] was -0.010 and the SRB [8] was 0.001. It also gave an SRB-Mphg [8] of 0.011, a sIL-10 [8] of 0.038 and a CCL2/MCP-1 (/TH2, 1.00E4 nM) of -0.115. The CCL26/Eotaxin-3 (/TH2, 1.00E4 nM) was -0.131, the CD38 (/TH2, 1.00E4 nM) was -0.035 and the CD40 (/TH2, 1.00E4 nM) was -0.240. For the same molecule, the CD62E/E-Selectin (/TH2, 1.00E4 nM) was 0.049, the CD62P/P-selectin (/TH2, 1.00E4 nM) was -0.00467 and the CD69 (/TH2, 1.00E4 nM) was -0.006. It also gave a CD87/uPAR (/TH2, 1.00E4 nM) of -0.174, a CD106/VCAM-1 (/TH2, 1.00E4 nM) of -0.004 and a CXCL8/IL-8 (/TH2, 1.00E4 nM) of -0.049. For the same molecule, the CXCL9/MIG (/TH2, 1.00E4 nM) was -0.021, the “Collagen IV” value (/TH2, 1.00E4 nM) was 0.028 and the “PBMC Cytotoxicity” value (/TH2, 1.00E4 nM) was -0.00277. It also gave an SRB (/TH2, 1.00E4 nM) of -0.174, a sIL-17A (/TH2, 1.00E4 nM) of 0.175 and a sIL-17F (/TH2, 1.00E4 nM) of 0.137. For the same molecule, the CCL2/MCP-1 (/TH2, 1.11E3 nM) was -0.084, the CCL26/Eotaxin-3 (/TH2, 1.11E3 nM) was -0.167 and the CD38 (/TH2, 1.11E3 nM) was -0.006. For the same molecule, the CD40 (/TH2, 1.11E3 nM) was -0.166, the CD62E/E-Selectin (/TH2, 1.11E3 nM) was 0.083 and the CD62P/P-selectin (/TH2, 1.11E3 nM) was -0.044. It also gave a CD69 (/TH2, 1.11E3 nM) of 0.041, a CD87/uPAR (/TH2, 1.11E3 nM) of -0.190 and a CD106/VCAM-1 (/TH2, 1.11E3 nM) of 0.034. The CXCL8/IL-8 (/TH2, 1.11E3 nM) was -0.084, the CXCL9/MIG (/TH2, 1.11E3 nM) was -0.034 and the “Collagen IV” value (/TH2, 1.11E3 nM) was -0.00538. For the same molecule, the “PBMC Cytotoxicity” value (/TH2, 1.11E3 nM) was -0.052, the SRB (/TH2, 1.11E3 nM) was -0.084 and the sIL-17A (/TH2, 1.11E3 nM) was 0.045. It also gave a sIL-17F (/TH2, 1.11E3 nM) of 0.003, a CCL2/MCP-1 (/TH2, 1.23E2 nM) of -0.100 and a CCL26/Eotaxin-3 (/TH2, 1.23E2 nM) of -0.152. The CD38 (/TH2, 1.23E2 nM) was -0.00143, the CD40 (/TH2, 1.23E2 nM) was -0.162 and the CD62E/E-Selectin (/TH2, 1.23E2 nM) was 0.078. The CD62P/P-selectin (/TH2, 1.23E2 nM) was -0.060, the CD69 (/TH2, 1.23E2 nM) was 0.046 and the CD87/uPAR (/TH2, 1.23E2 nM) was -0.227. It also gave a CD106/VCAM-1 (/TH2, 1.23E2 nM) of 0.025, a CXCL8/IL-8 (/TH2, 1.23E2 nM) of -0.055 and a CXCL9/MIG (/TH2, 1.23E2 nM) of -0.030. For the same molecule, the “Collagen IV” value (/TH2, 1.23E2 nM) was -0.013, the “PBMC Cytotoxicity” value (/TH2, 1.23E2 nM) was 0.007 and the SRB (/TH2, 1.23E2 nM) was -0.061. The sIL-17A (/TH2, 1.23E2 nM) was 0.043, the sIL-17F (/TH2, 1.23E2 nM) was 0.061 and the CCL2/MCP-1 (/TH2, 1.37E1 nM) was -0.029. It also gave a CCL26/Eotaxin-3 (/TH2, 1.37E1 nM) of -0.152, a CD38 (/TH2, 1.37E1 nM) of 0.015 and a CD40 (/TH2, 1.37E1 nM) of -0.156. It also gave a CD62E/E-Selectin (/TH2, 1.37E1 nM) of 0.024, a CD62P/P-selectin (/TH2, 1.37E1 nM) of -0.040 and a CD69 (/TH2, 1.37E1 nM) of 0.016. For the same molecule, the CD87/uPAR (/TH2, 1.37E1 nM) was -0.193, the CD106/VCAM-1 (/TH2, 1.37E1 nM) was 0.020 and the CXCL8/IL-8 (/TH2, 1.37E1 nM) was -0.050. The CXCL9/MIG (/TH2, 1.37E1 nM) was 0.013, the “Collagen IV” value (/TH2, 1.37E1 nM) was 0.018 and the “PBMC Cytotoxicity” value (/TH2, 1.37E1 nM) was -0.060. For the same molecule, the SRB (/TH2, 1.37E1 nM) was -0.037, the sIL-17A (/TH2, 1.37E1 nM) was -0.008 and the sIL-17F (/TH2, 1.37E1 nM) was 0.096. For the same molecule, the CCL2/MCP-1 (/TH2, 3.33E3 nM) was -0.125.
